{"source": "paper PMC5830590", "about": "(British Journal of Cancer, 2018)", "key": {"[1]": {"test": "Urinary excretion up to 25 h after start of copanlisib infusion", "type": "in vivo, human", "settings": "25 h urine collection interval; expansion cohort"}, "[2]": {"test": "Plasma pharmacokinetics on cycle 1, day 1", "type": "in vivo, human"}, "[3]": {"system": "multidrug and toxin extrusion protein 2K (MATE2-K)", "settings": "in vitro; no reference given; cited from earlier work"}, "[4]": {"system": "patients with advanced malignancies", "test": "Adverse events", "type": "in vivo, human"}, "[5]": {"system": "class I PI3K (PI3K-δ and PI3K-α isoforms)", "settings": "pan-class I PI3K inhibitor; ref Liu et al, 2013; Haike et al, 2014; cited from earlier work"}, "PIK3CA-mutated cells": {"system": "PIK3CA-mutated cells", "settings": "preclinical studies; ref Liu et al, 2013; cited from earlier work"}, "[6]": {"system": "advanced or refractory solid tumours", "test": "Tumour response by RECIST version 1.1", "type": "in vivo, human"}, "[7]": {"system": "patients with advanced malignancies", "test": "Dose escalation", "type": "in vivo, human"}, "[8]": {"system": "patients with chronic lymphocytic leukaemia, small lymphocytic lymphoma and indolent non-Hodgkin’s lymphomas", "settings": "ref US Food and Drug Administration, 2016; cited from earlier work"}}, "note": "Entries after “also recorded” stand apart in the source; their conditions may differ.", "data": [{"smiles": "COc1c(OCCCN2CCOCC2=O)ccc2c3n(c(=NC(=O)c4cnc(N)nc4)nc12)CCN3", "note": "[M-1]", "values": [{"measurement": "amount excreted into urine, % of dose", "setting": "[1]", "result": "~0.9", "unit": "%"}, {"measurement": "median tmax of M-1, range across cohorts", "setting": "[2]; copanlisib 0.8 mg kg^−1, cycle 1, day 1", "result": "2 to 4", "unit": "h"}, {"measurement": "effect of co-administration of CisGem on plasma exposure (Cmax and AUC(0–25))", "setting": "[2]; in vivo", "result": "no influence"}, {"measurement": "estimated geometric mean terminal half-life of M-1 versus copanlisib", "setting": "[2]; in vivo", "result": "comparable with that of copanlisib"}]}, {"smiles": "COc1c(OCCCN2CCOCC2)ccc2c1N=C(NC(=O)c1cnc(N)nc1)N1CCN=C21", "note": "[copanlisib]", "values": [{"measurement": "inhibition of MATE2-K", "setting": "[3]", "result": "strong inhibitor"}, {"measurement": "TEAE any grade: decreased platelet count", "setting": "[4]; all 50 patients", "result": 80, "unit": "%"}, {"measurement": "TEAE any grade: fatigue", "setting": "[4]; all 50 patients", "result": 76, "unit": "%"}, {"measurement": "TEAE any grade: hyperglycaemia", "setting": "[4]; all 50 patients", "result": 80, "unit": "%"}, {"measurement": "TEAE any grade: nausea", "setting": "[4]; all 50 patients", "result": 86, "unit": "%"}, {"measurement": "copanlisib-related TEAE: anaemia", "setting": "[4]; all 50 patients", "result": 42, "unit": "%"}, {"measurement": "copanlisib-related TEAE: anorexia", "setting": "[4]; all 50 patients", "result": 56, "unit": "%"}, {"measurement": "copanlisib-related TEAE: decreased neutrophil count", "setting": "[4]; all 50 patients", "result": 62, "unit": "%"}, {"measurement": "copanlisib-related TEAE: decreased platelet count", "setting": "[4]; all 50 patients", "result": 58, "unit": "%"}, {"measurement": "copanlisib-related TEAE: fatigue", "setting": "[4]; all 50 patients", "result": 66, "unit": "%"}, {"measurement": "copanlisib-related TEAE: hyperglycaemia", "setting": "[4]; all 50 patients", "result": 76, "unit": "%"}, {"measurement": "copanlisib-related TEAE: hypertension", "setting": "[4]; all 50 patients", "result": 46, "unit": "%"}, {"measurement": "copanlisib-related TEAE: nausea", "setting": "[4]; all 50 patients", "result": 74, "unit": "%"}, {"measurement": "copanlisib-related TEAE: vomiting", "setting": "[4]; all 50 patients", "result": 36, "unit": "%"}, {"measurement": "deaths considered related to study treatment", "setting": "[4]; all 50 patients", "result": "No deaths"}, {"measurement": "grade ⩾3 TEAE: decreased neutrophil count", "setting": "[4]; all 50 patients", "result": 62, "unit": "%"}, {"measurement": "grade ⩾3 TEAE: decreased platelet count", "setting": "[4]; all 50 patients", "result": 38, "unit": "%"}, {"measurement": "grade ⩾3 TEAE: fatigue", "setting": "[4]; all 50 patients", "result": 22, "unit": "%"}, {"measurement": "grade ⩾3 TEAE: hyperglycaemia", "setting": "[4]; all 50 patients", "result": 24, "unit": "%"}, {"measurement": "grade ⩾3 TEAE: hypertension", "setting": "[4]; all 50 patients", "result": 42, "unit": "%"}, {"measurement": "grade ⩾3 copanlisib-related AE: decreased neutrophil count", "setting": "[4]; all 50 patients", "result": 48, "unit": "%"}, {"measurement": "grade ⩾3 copanlisib-related AE: decreased platelet count", "setting": "[4]; all 50 patients", "result": 28, "unit": "%"}, {"measurement": "grade ⩾3 copanlisib-related AE: hypertension", "setting": "[4]; all 50 patients", "result": 38, "unit": "%"}, {"measurement": "patients who received insulin as remedial drug therapy", "setting": "[4]; all 50 patients", "result": 14, "unit": "patients"}, {"measurement": "dose modification because of copanlisib-related TEAEs", "setting": "[4]; all 50 patients, 26 patients", "result": 52, "unit": "%"}, {"measurement": "serious AE", "setting": "[4]; all 50 patients, 26 patients", "result": 52, "unit": "%"}, {"measurement": "dose modifications (interruption or dose reduction) for copanlisib, gemcitabine or cisplatin due to TEAEs", "setting": "[4]; all 50 patients, 45 patients", "result": 90, "unit": "%"}, {"measurement": "at least one serious copanlisib-related AE", "setting": "[4]; all 50 patients, eleven patients", "result": 22, "unit": "%"}, {"measurement": "serious AE: abdominal pain", "setting": "[4]; all 50 patients, four patients", "result": 8, "unit": "%"}, {"measurement": "permanently discontinued copanlisib because of TEAEs", "setting": "[4]; all 50 patients, nine patients", "result": 18, "unit": "%"}, {"measurement": "serious copanlisib-related AE: grade 4 sinus tachycardia and grade 4 sepsis", "setting": "[4]; all 50 patients, one patient", "result": 2, "unit": "%"}, {"measurement": "serious AE: lung infection", "setting": "[4]; all 50 patients, six patients", "result": 12, "unit": "%"}, {"measurement": "TEAE of grade 3 hyperglycaemia", "setting": "[4]; all 50 patients, ten patients", "result": 20, "unit": "%"}, {"measurement": "serious AE: dehydration", "setting": "[4]; all 50 patients, three patients", "result": 6, "unit": "%"}, {"measurement": "TEAE of grade 4 hyperglycaemia", "setting": "[4]; all 50 patients, two patients", "result": 4, "unit": "%"}, {"measurement": "grade 4 serious TEAE: sepsis", "setting": "[4]; all 50 patients, two patients", "result": 4, "unit": "%"}, {"measurement": "patients with infusion-related increases in plasma glucose and plasma insulin", "setting": "[4]; all patients", "result": "~80", "unit": "%"}, {"measurement": "signs of increased nephrotoxicity caused by intrarenal accumulation of cisplatin", "setting": "[4]; patients treated with copanlisib plus cisplatin, data not shown", "result": "no signs of increased nephrotoxicity"}, {"measurement": "PI3K isoform selectivity", "setting": "[5]", "result": "predominant activity against PI3K-δ and PI3K-α isoforms"}, {"measurement": "anti-tumour activity in PIK3CA-mutated cells", "setting": "PIK3CA-mutated cells", "result": "anti-tumour activity"}, {"measurement": "response rate in patients with BTC who had not received prior anti-cancer therapy", "setting": "[6]; 4 out of 11 patients", "result": 36, "unit": "%"}, {"measurement": "response in patients with BTC who had received prior CisGem or gemcitabine-containing chemotherapy", "setting": "[6]; 12 patients", "result": "No response"}, {"measurement": "objective response rate overall", "setting": "[6]; all 50 patients, all cohorts", "result": 10, "unit": "%"}, {"measurement": "stable disease, patients", "setting": "[6]; all 50 patients, 19 patients", "result": 38, "unit": "%"}, {"measurement": "partial response, patients", "setting": "[6]; all 50 patients, four patients", "result": 8, "unit": "%"}, {"measurement": "complete response, patients", "setting": "[6]; all 50 patients, one patient", "result": 2, "unit": "%"}, {"measurement": "RP2D of copanlisib in combination with CisGem", "setting": "[7]; cisplatin 25 mg m^−2 + gemcitabine 1000 mg m^−2, days 1 and 8 of a 21-day cycle", "result": 0.8, "unit": "mg/kg"}, {"measurement": "RP2D of copanlisib in combination with gemcitabine", "setting": "[7]; gemcitabine 1000 mg m^−2, days 1, 8 and 15 of a 28-day cycle", "result": 0.8, "unit": "mg/kg"}, {"measurement": "amount excreted into urine, % of dose", "setting": "[1]", "result": "about 4.9%"}, {"measurement": "dose dependence of plasma exposure (Cmax and AUC)", "setting": "[2]; dose range 0.6–0.8 mg kg^−1", "result": "nearly dose-proportional increase"}, {"measurement": "half-life", "setting": "[2]; human, plasma, intravenous", "result": "1500 to 1560", "unit": "min"}, {"measurement": "effect of co-administration of CisGem on plasma exposure (Cmax and AUC(0–25))", "setting": "[2]; in vivo", "result": "No substantial differences; also recorded: no influence"}]}, {"smiles": "O=c1ccn([C@@H]2O[C@H](CO)[C@@H](O)C2(F)F)c(=O)[nH]1", "note": "[dFdU, 2’,2’-difluorodeoxyuridine]", "values": [{"measurement": "influence of co-administration with copanlisib on PK", "setting": "[2]; in vivo", "result": "not influenced"}]}, {"smiles": "Nc1ccn([C@@H]2O[C@H](CO)[C@@H](O)C2(F)F)c(=O)n1", "note": "[gemcitabine, reference compound]", "values": [{"measurement": "influence of co-administration with copanlisib on PK", "setting": "[2]; in vivo", "result": "not influenced"}]}, {"smiles": "CC[C@H](Nc1ncnc2[nH]cnc12)c1nc2cccc(F)c2c(=O)n1-c1ccccc1", "note": "[idelalisib]", "values": [{"measurement": "rate of AEs in combination with other anti-cancer therapies", "setting": "[8]", "result": "increased rate of AEs, including deaths"}]}]}
